# Laboratory results taken from patent US12576155B2, “Senolytic and antiinflammatory prodrugs and methods of use thereof” (priority 2019, dated 2026).
# Legend:
# Format in all cases: cell-based
# [1] = tested on: human senescent fibroblasts induced by different stimuli; experiment: Cell viability, senescent and non-senescent human embryonic fibroblasts (HEFs)
# Protocol: Human embryonic skin fibroblasts (HEFs) were obtained as previously described. Briefly, human embryonic skin tissues, obtained from aborted tissue with informed patient consent, were minced with forceps and incubated in 1 mg/ml collagenase IV for 1-2 hours at 37° C. After enzyme treatment, cells were collected by centrifugation and resuspended in HEF medium (Dulbecco's modified Eagle's medium (DMEM, Gibco) containing 10% fetal bovine serum (FBS, Ausbian), 1% GlutaMAX (Gibco), 1% Non-Essential Amino Acids (NEAA, Gibco) and 1% penicillin/streptomycin (Gibco). Cells were plated on 10 cm tissue culture dishes and grown in 10% FBS DMEM.
# For replication-induced senescence, cells were passaged until they lost the ability to proliferate and became senescent. NBFs were used as senescent cells after approximately 8-9 passages or 12 population doublings. HEFs were used after approximately 35 passages or 50 population doublings. HUVECs were senescent after approximately 18 passages or 24 population doublings.
# For ionizing radiation-induced senescence, MEFs and HEFs were exposed to 10 Gy of ionizing irradiation in an RS 2000 X-ray Biological Irradiator (Rad Source Technologies, Inc.) at a dose rate of 1.205 Gy/min. The day after irradiation, MEFs or HEFs were passaged at a 1:3 dilution and cultured for another three days. Then these cells were plated to carry out further experiments.
# For etoposide-induced senescence, MEFs were treated with 2 μM etoposide for 20 hours, and HEFs were treated with 10 μM etoposide for 12-18 hours. Three days after treatment, cells were sub-cultured at a 1:3 ratio for 72 hours in a fresh medium before further analysis.
# To test the viability of senescent and non-senescent cells treated with SSK1, cells were stained with a mixture of Hoechst 33342 and propidium iodide (PI) (CA1120, Solarbio) to distinguish living and dead cells. […] The plate was incubated at 4° C. for 30 min and observed on a fluorescence microscope or automatic cell imaging system. Viable cells were quantified using a MD Image Xpress Micro XL (Molecular Devices).
# [2] = tested on: GLB1 knockdown (shGLB1-1 and -2) senescent cells; experiment: Cell viability of GLB1 knockdown senescent cells; details: SSK1 0.5 μM; shGLB1-1 and -2 vs shControl
# Protocol: Plasmids used to interfere the expression of GLB1 with short hairpin RNAs (shRNAs) were obtained from Sigma MISSION shRNA. Genetic knockdown was performed according to the manufacturer's protocol.
# Lentivirus production, collection, and infection were as described (Zhao et al., Cell Stem Cell 3, 475-479(2008)).
# To test the viability of senescent and non-senescent cells treated with SSK1, cells were stained with a mixture of Hoechst 33342 and propidium iodide (PI) (CA1120, Solarbio) to distinguish living and dead cells. After treatment with the small molecules, the cell culture medium was removed, and the cells were washed once with PBS. Then, the cells were stained according to the manufacturer's protocol, where the final concentrations of Hoechst 33342 and PI were 5 μg/ml and 2 μg/ml in PBS buffer. The plate was incubated at 4° C. for 30 min and observed on a fluorescence microscope or automatic cell imaging system. Viable cells were quantified using a MD Image Xpress Micro XL (Molecular Devices).
# [3] = tested on: senescent cells; experiment: Flow cytometry of apoptosis (annexin V / propidium iodide) in senescent cells; details: SSK1-treated senescent cells; after 36 hours of treatment
# Protocol: Fibroblasts were digested into single cell suspensions by incubation with 0.25% trypsin-EDTA (Invitrogen) at 37° C. for 3-5 min or with accutase at 37° C. for 10 min. Cells were then stained with FITC annexin V and propidium iodide (PI) according to the manufacturer's protocol (FITC Annexin V Apoptosis Detection Kit I, BD Pharmingen™). For chondrocytes Annexin V/7-AAD analysis, the trypsinized live chondrocytes and floating cells were collected, centrifuged and washed with PBS. Cells were stained with the Annexin V Apoptosis Detection Kit (Biolegend, 640934) according to the manufacturer's instruction. Before the flow cytometric analysis, the precision count beads (Biolegend, 424902) were added to count the absolute live cell numbers. Flow cytometry was performed within one hour on an Aria III (BD Biosciences) or FACSVerse (BD Biosciences). Data were analyzed using FlowJo software (FlowJo LLC).
# [4] = tested on: senescent mouse fibroblasts induced by ionizing irradiation, oncogene overexpression, or genotoxic stress (etoposide treatment); experiment: Cell viability, oncogene-, etoposide- and irradiation-induced senescent MEFs; details: oncogene- (Kras), etoposide- and irradiation- (10 Gy) induced senescent MEFs vs non-senescent; increasing doses
structure (smiles),measurement,setting,value
CC(=O)OCC1O[C@@H](Oc2ccc(COC(=O)Nc3ccn([C@@H]4O[C@H](CO)C(O)C4(F)F)c(=O)n3)cc2[N+](=O)[O-])C(OC(C)=O)C(OC(C)=O)[C@H]1OC(C)=O (some centres unmarked) [SSK1],Clearance of senescent cells,[1]; senescent HEFs induced by different stresses vs non-senescent counterparts,cleared by SSK1
same,Percentage of cell viability in senescent cell populations,"[1]; vehicle or treated senescent HEFs, FIG. 2F",dose dependent decrease of senescent cells
same,Effect of GLB1 knockdown on killing of senescent cells by SSK1,[2],impaired the ability of SSK1 to kill SA-β-gal-positive senescent cells
same,Apoptosis (annexin V / PI),[3],induced apoptosis in senescent cells
same,Selective killing of senescent cells (viable cells),[4],"selectively killed by SSK1, while non-senescent cells were largely unaffected"
